The values that follow come from patent US7557137B2, “Gamma-lactams as beta-secretase inhibitors” (Bristol-Myers Squibb Company, priority 2002, dated 2009).

The assay addresses T1, BACE enzyme (Homo sapiens, UniProt P56817).
T1 construct: the catalytic domain, appended by a C-terminal poly-histidine tag, is secreted out into the cellular medium; made in house; host or cells: Drosophila melanogaster S2 cells
In words: BACE enzyme inhibition, fluorescence-quenched peptide substrate MCA-EVNLDAEFK(DNP). It is filed as biochemical. Conditions: 50 mM acetate, pH 4.5, 0.25 mg/ml bovine serum albumin, 2.5% DMSO; read-out: Activity Rating (based on IC50 values). The source says: There are a number of methods by which inhibitors of the BACE enzyme can be identified experimentally. The enzyme can be obtained from membrane samples from natural tissues or cultured cells or can be expressed recombinantly in a host cell by well known methods of molecular biology. […] The enzymatic activity and/or ligand binding capability of the enzyme can be assessed within these membrane samples, or the enzyme can be purified to varying extents. As an illustrative example, the nucleic acid sequence encoding the pro and catalytic domains of human BACE can be appended on the 5′ end with an untranslated and signal sequence from the gene for acetylcholinesterase, and on the 3′ end with a sequence encoding a poly-histidine tag. This cDNA can then be expressed in Drosophila melanogaster S2 cells in which the signal and pro sequences of the transcribed/translated protein are removed by cellular proteases and the catalytic domain, appended by a C-terminal poly-histidine tag, is secreted out into the cellular medium. The enzyme can then be purified from the culture medium by nickel affinity chromatography by methods well known to those trained in the art [Mallender, W. et al., (2001) “Characterization of recombinant, soluble beta-secretase from an insect cell expression system.” Mol. Pharmacol. 59: 619-626]. Similar strategies for expressing and purifying various forms of BACE in bacterial, mammalian and other cell types would be known to one skilled in the art.
The enzyme thus obtained can be put in contact with a test compound and with an appropriate substrate on which enzyme-mediated peptide bond hydrolysis is known to occur. The ability of the test compound to diminish the rate of substrate hydrolysis can then be quantified as a measure of inhibition potency. Appropriate substrates can be prepared as peptides, proteins, or chemically modified versions of peptides or proteins, that contain an amino acid sequence that is recognized as a substrate by the enzyme. For example, the amino acid sequence immediately proximal to the beta-cleavage site within Swedish mutant APP is known to be recognized as a substrate for BACE. […] Longer peptide and protein substrates can also be designed by extending the amino acid composition on the N-terminal, the C-terminal, or both ends.
In one known application of (SEQ. ID. NO.:1), X is a 7-methoxycoumarin-4-acetyl (MCA) group and Y is a dinitrophenyl (DNP) group [Marcinkeviciene, J. et al., (2001) “Mechanism of inhibition of beta-site amyloid precursor protein-cleaving enzyme (BACE) by a statine-based peptide.” J. Biol. Chem. 276: 23790-23794]. When this peptide is intact, the natural fluorescence of the MCA group is quenched by its proximity to the DNP group. […] The increase in fluorescence intensity that accompanies enzyme-mediated peptide hydrolysis can be measured as a function of time to quantify the velocity of enzyme catalysis. In a typical assay system the BACE enzyme is diluted into a buffer system composed of 50 mM acetate, pH 4.5 containing 0.25 mg/ml bovine serum albumin. To this is added neat dimethyl sulfoxide (DMSO) or a stock solution of test compound dissolved in DMSO so that the final amount of DMSO in all assays is held constant at 2.5% (v:v). The enzymatic reaction is then initiated by addition of a stock solution of the substrate peptide to a known concentration. The fluorescence increase with time after substrate addition is monitored with an appropriate fluorescence detection instrument, such as a microplate reader or spectrofluorometer. The slope of the signal vs. time plot (progress curve) for samples to which only DMSO was added is taken as a measure of the uninhibited velocity and represents 100% enzymatic activity.

T1 sequence (P56817 75-416 limits assumed): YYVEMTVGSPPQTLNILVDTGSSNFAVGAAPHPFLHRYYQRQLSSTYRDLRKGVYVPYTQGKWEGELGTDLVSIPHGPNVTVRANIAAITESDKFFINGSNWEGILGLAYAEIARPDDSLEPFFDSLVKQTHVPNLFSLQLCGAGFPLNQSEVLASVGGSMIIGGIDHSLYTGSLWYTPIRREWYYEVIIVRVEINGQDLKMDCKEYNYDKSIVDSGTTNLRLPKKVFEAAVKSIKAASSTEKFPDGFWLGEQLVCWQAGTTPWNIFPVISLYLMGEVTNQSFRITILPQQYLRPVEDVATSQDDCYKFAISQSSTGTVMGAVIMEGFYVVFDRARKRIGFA

For `CCC(=O)N[C@]1([C@@H](C)CC)CCN([C@@H](CCc2ccccc2)C(=O)N[C@@H](Cc2ccccc2)[C@H](O)CNCc2cccc(OC)c2)C1=O` [Example 10, (2S)-2-(3(S)-propionylamino-3-((S)-sec-butyl)-2-oxo-pyrrolidin-1-yl)-N-[(1S,2R)-1-benzyl-2-hydroxy-3-(3-methoxy-benzylamino)-propyl]-4-phenyl-butyramide], the IC50 (as a rule, the concentration needed to halve the response being measured) is less than 100 nM.

For `CC[C@H](C)[C@@]1(NC(C)=O)CCN([C@@H](CCc2ccccc2)C(=O)N[C@@H](Cc2ccccc2)[C@H](O)CNCc2cccc(OC)c2)C1=O` [Example 3, (2S)-2-(3(S)-Acetylamino-3-((S)-sec-butyl)-2-oxo-pyrrolidin-1-yl)-N-[(1S,2R)-1-benzyl-2-hydroxy-3-(3-methoxy-benzylamino)-propyl]-4-phenyl-butyramide], the IC50 was less than 100 nM.

For `COc1cccc(CC[C@@H](C(=O)N[C@@H](Cc2cc(F)cc(F)c2)[C@H](O)CNCc2cccc(OC)c2)N2CCC(CC3CC3)(NC(C)=O)C2=O)c1` (stereo in doubt) [Example 42, (2S)-2-(3(S)-acetylamino-3-(cyclopropylmethyl)-2-oxo-pyrrolidin-1-yl)-N-[(1S,2R)-1-(3,5-difluorobenzyl)-2-hydroxy-3-(3-methoxybenzylamino)-propyl]-4-(3-methoxyphenyl)-butyramide], the IC50 is less than 100 nM.

With `CC[C@H](C)[C@@]1(NC(C)=O)CCN([C@@H](CCc2ccccc2)C(=O)N[C@@H](Cc2ccccc2)[C@H](O)CNCc2cc(F)cc(F)c2)C1=O` [Example 33, (2S)-2-(3(S)-acetylamino-3-((S)-sec-butyl)-2-oxo-pyrrolidin-1-yl)-N-[(1S,2R)-1-benzyl-2-hydroxy-3-(3,5-difluorobenzylamino)-propyl]-4-phenyl-butyramide], the IC50 is less than 100 nM.

Turning to `COc1cccc(CNC[C@@H](O)[C@H](Cc2cc(F)cc(F)c2)NC(=O)[C@H](CCc2ccccc2)N2CC[C@](NC(C)=O)(C(C)C)C2=O)c1` [Example 1, (2S)-2-(3-Acetylamino-3-isopropyl-2-oxo-pyrrolidin-1-yl)-N-[(1S,2R)-1-(3,5-difluoro-benzyl)-2-hydroxy-3-(3-methoxy-benzylamino)-propyl]-4-phenyl-butyramide], the IC50 was less than 100 nM.

Consider `COc1cccc(CNC[C@@H](O)[C@H](Cc2ccccc2)NC(=O)[C@H](CCc2ccccc2)N2CC[C@](CC3CC3)(NC(C)=O)C2=O)c1` [Example 7, (2S)-2-(3(S)-Acetylamino-3(-cyclopropylmethyl)-2-oxo-pyrrolidin-1-yl)-N-[(1S,2R)-1-benzyl-2-hydroxy-3-(3-methoxy-benzylamino)-propyl]-4-phenyl-butyramide], for which the IC50 was less than 100 nM.

With `CCC(C)[C@@]1(NC(=O)CN)CCN([C@@H](CCc2ccccc2)C(=O)N[C@@H](Cc2ccccc2)[C@H](O)CNCc2cccc(OC)c2)C1=O` (single isomer, unassigned) [Example 22], the IC50 lay within 100 to 1000 nM.

For the compound `CCOC(=O)N[C@]1(C(C)CC)CCN([C@@H](CCc2ccccc2)C(=O)N[C@@H](Cc2ccccc2)[C@H](O)CNCc2cccc(OC)c2)C1=O` (single isomer, unassigned) [Example 14], the IC50 was less than 100 nM.

For `COc1cccc(CNC[C@@H](O)[C@H](Cc2cc(F)cc(F)c2)NC(=O)[C@H](CCc2ccc(F)cc2)N2CCC(CC3CC3)(NC(C)=O)C2=O)c1` (stereo in doubt) [Example 41, (2S)-2-(3(S)-acetylamino-3-(cyclopropylmethyl)-2-oxo-pyrrolidin-1-yl)-N-[(1S,2R)-1-(3,5-difluorobenzyl)-2-hydroxy-3-(3-methoxybenzylamino)-propyl]-4-(4-fluorophenyl)-butyramide], the IC50 was less than 100 nM.

As to `CCC(C)[C@@]1(NC(=O)CCc2cnc[nH]2)CCN([C@@H](CCc2ccccc2)C(=O)N[C@@H](Cc2ccccc2)[C@@H](O)CNCc2cccc(OC)c2)C1=O` (single isomer, unassigned) [Example 21], the IC50 lay within 100 to 1000 nM.

For the compound `CC(=O)N[C@]1(CC(C)C)CCN([C@@H](CCc2ccccc2)C(=O)N[C@@H](Cc2ccccc2)[C@H](O)CNCc2ccccc2)C1=O` [Example 35, 2-(3(S)-Acetylamino-3(S)-isobutyl-2-oxo-pyrrolidin-1-yl)-N-[(1S,2R)-1-benzyl-2-hydroxy-3-benzylamino-propyl]-4-phenyl-butyramide], the IC50 is less than 100 nM.

In the case of `COc1cccc(CNC[C@@H](O)[C@H](Cc2cc(F)cc(F)c2)NC(=O)[C@H](CCc2ccccc2OC)N2CCC(CC3CC3)(NC(C)=O)C2=O)c1` (stereo in doubt) [Example 38, (2S)-2-(3(S)-acetylamino-3-(cyclopropylmethyl)-2-oxo-pyrrolidin-1-yl)-N-[(1S,2R)-1-(3,5-difluorobenzyl)-2-hydroxy-3-(3-methoxybenzylamino)-propyl]-4-(2-methoxyphenyl)-butyramide], the IC50 is less than 100 nM.

Take `CC[C@H](C)[C@@]1(NC(=O)COC)CCN([C@@H](CCc2ccccc2)C(=O)N[C@@H](CC(C)C)[C@H](O)CNCc2cccc(OC)c2)C1=O` [Example 5, (2S)-2-(3-((S)-sec-butyl)-3-(2-methoxy-acetylamino)-2-oxo-pyrrolidin-1-yl)-N—(S)-{1(R)-[1-hydroxy-2-(3-methoxy-benzylamino)-ethyl]-3-methyl-butyl}-4-phenyl-butyramide]: the IC50 fell in the range of 1000 to 50000 nM.

As for `CCC(C)[C@@]1(NC(=O)OC)CCN([C@@H](CCc2ccccc2)C(=O)N[C@@H](Cc2ccccc2)[C@H](O)CNCc2cccc(OC)c2)C1=O` (single isomer, unassigned) [Example 16], the IC50 was less than 100 nM.

As to `CC[C@H](C)[C@@]1(NC(=O)C(F)(F)F)CCN([C@@H](CCc2ccccc2)C(=O)N[C@@H](Cc2ccccc2)[C@H](O)CNCc2cccc(OC)c2)C1=O` [Example 19, (2S)-2-(3(S)-(trifluoroacetyl)amino-3-((S)-sec-butyl)-2-oxo-pyrrolidin-1-yl)-N-[(1S,2R)-1-benzyl-2-hydroxy-3-(3-methoxy-benzylamino)-propyl]-4-phenyl-butyramide], the IC50 is 100 to 1000 nM.

For `CC[C@H](C)[C@@]1(NC(=O)COC)CCN([C@@H](CCc2ccccc2)C(=O)N[C@@H](Cc2ccccc2)[C@H](O)CNCc2cccc(OC)c2)C1=O` [Example 9, (2S)-2-(3(S)-(2-methoxy-acetylamino)-3-((S)-sec-butyl)-2-oxo-pyrrolidin-1-yl)-N-[(1S,2R)-1-benzyl-2-hydroxy-3-(3-methoxy-benzylamino)-propyl]-4-phenyl-butyramide], the IC50 is less than 100 nM.

Turning to `CCC(=O)N[C@]1([C@@H](C)CC)CCN([C@@H](CCc2ccccc2)C(=O)N[C@@H](CC(C)C)[C@H](O)CNCc2cccc(OC)c2)C1=O` [Example 4, 2(S)-(3(S)-((S)-sec-butyl)-2-oxo-3-propionylamino-pyrrolidin-1-yl)-N—(S)-{1(R)-[1-hydroxy-2-(3-methoxy-benzylamino)-ethyl]-3-methyl-butyl}-4-phenyl-butyramide], the IC50 lay in the range of 100 to 1000 nM.

`CCC(C)[C@@]1(NC(=O)OC)CCN([C@@H](CCc2ccccc2)C(=O)N[C@@H](Cc2ccccc2)[C@@H](O)CNCc2cccc(OC)c2)C1=O` (single isomer, unassigned) [Example 15]: the concentration for half-maximal inhibition (IC50) was in the range of 1000 to 50000 nM.

Consider `COc1cccc(CNC[C@@H](O)[C@H](Cc2ccccc2)NC(=O)[C@H](CCc2ccccc2)N2CC[C@@](CC3CC3)(NC(C)=O)C2=O)c1` [Example 6, (2S)-2-(3(R)-Acetylamino-3(-cyclopropylmethyl)-2-oxo-pyrrolidin-1-yl)-N-[(1S,2R)-1-benzyl-2-hydroxy-3-(3-methoxy-benzylamino)-propyl]-4-phenyl-butyramide], for which the IC50 lay within 1000 to 50000 nM.
